In patent US11730714B2, “Compounds for the treatment of neuromuscular disorders” (NMD PHARMA A/S, priority 2017, dated 2023):

The molecules below were run against T1, human CIC-1 channels (Homo sapiens, UniProt P35523) (assay: Automated patch-clamp on human CIC-1 expressed in CHO cells (shift in half activation voltage V1/2)). Conditions: compound in intracellular solution vs vehicle control patches; CHO cells expressing human ClC-1.
T1 construct: host or cells: CHO (Chinese hamster ovary) cells, cryopreserved, used directly after thawing
T1 sequence (P35523 whole entry): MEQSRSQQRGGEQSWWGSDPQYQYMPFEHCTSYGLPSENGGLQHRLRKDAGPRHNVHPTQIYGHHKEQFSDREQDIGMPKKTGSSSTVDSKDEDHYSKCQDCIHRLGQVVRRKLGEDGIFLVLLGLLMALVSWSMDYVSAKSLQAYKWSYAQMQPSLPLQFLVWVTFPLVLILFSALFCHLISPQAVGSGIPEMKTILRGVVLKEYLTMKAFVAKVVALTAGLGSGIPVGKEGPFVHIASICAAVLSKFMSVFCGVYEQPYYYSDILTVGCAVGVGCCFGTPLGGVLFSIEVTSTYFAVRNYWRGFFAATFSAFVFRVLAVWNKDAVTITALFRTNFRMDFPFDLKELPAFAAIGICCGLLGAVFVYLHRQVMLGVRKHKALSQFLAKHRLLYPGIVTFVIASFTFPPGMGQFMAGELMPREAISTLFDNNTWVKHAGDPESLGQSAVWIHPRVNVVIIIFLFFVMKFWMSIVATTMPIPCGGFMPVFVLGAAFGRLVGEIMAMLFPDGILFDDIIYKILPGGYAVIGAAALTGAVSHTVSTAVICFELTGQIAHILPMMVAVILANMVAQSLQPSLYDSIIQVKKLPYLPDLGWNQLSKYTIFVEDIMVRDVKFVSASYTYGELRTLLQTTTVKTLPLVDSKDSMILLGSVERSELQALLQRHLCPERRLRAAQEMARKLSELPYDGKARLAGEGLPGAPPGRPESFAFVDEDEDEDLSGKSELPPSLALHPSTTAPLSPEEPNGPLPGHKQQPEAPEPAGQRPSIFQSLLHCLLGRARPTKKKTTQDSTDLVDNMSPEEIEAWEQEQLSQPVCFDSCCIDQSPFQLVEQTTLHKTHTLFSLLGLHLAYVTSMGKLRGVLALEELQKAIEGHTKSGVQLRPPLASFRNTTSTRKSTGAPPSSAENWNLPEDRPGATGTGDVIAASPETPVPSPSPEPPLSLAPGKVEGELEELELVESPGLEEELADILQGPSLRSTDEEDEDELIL
Assay type: cell-based
Method: FIG. 13A-13B: FIG. 13A illustrates the voltage protocol used to evoke currents in whole cell patches of CHO cells expressing human CIC-1 channels.
The investigatory goal of these experiments was to evaluate how compounds affect the open probability and current amplitude of human CIC-1 channels expressed in CHO cells. Experiments were performed using an automated patch clamp system that allowed high throughput testing of whole cell patches together with both intracellular and extracellular addition of compound.
Automated whole cell patch clamp experiments were performed with the Qpatch 16 system (Sophion Bioscience, Ballerup, Denmark) at room temperature. Data acquisition and analysis were performed in the Qassay software (ver. 5.6, Odense).
To obtain tail currents, the membrane potential was stepped to −100 mV after each test voltage for 300 ms and then relaxed to −30 mV for 2 sec between sweeps (FIG. 3). I/V relationships for whole cell instant and steady state current amplitudes were obtained by plotting average current densities at the beginning and at the end of the 300 ms step against the membrane potential (FIG. 4).
In order to determine the relative overall open probability (Po), the instantaneous tail currents were normalized to the maximal tail current obtained following the most positive voltage step and plotted against the test voltage. Plots of normalized tail currents from each whole cell patch were then fitted to a Boltzmann function allowing determination of half activation voltages (V1/2, FIG. 5).
Osmolality adjusted to […] using sucrose.
Intracellular solutions contained: 80 mM […], 60 mM CsCl, 5/1 mM KOH/EGTA, 10 mM HEPES, 10 mM NaCl, pH adjusted to 7.2 with NaOH (2 M). Osmolality adjusted to ˜320 mOsm using sucrose.
Cells used in patch clamp experiments were Chinese hamster ovary cells (CHO) constitutively expressing human CIC-1 channels. The amino acid sequence encoded by the cDNA used to create this cell line was identical to the translated sequence for GenBank accession number NM_000083.2. Cells were produced by Charles River (Catalogue CT6175, Cleveland Ohio, USA) in a cryopreserved format. Experiments were performed on the cells directly after thawing (3×10^6 cells used in each experiment).
To evaluate the compound effect on CIC-1, when applied directly to the intracellular side of the cell membrane, the half activation voltage, V1/2, was determined from whole cell patches with compound added to the intracellular solution and then compared to V1/2 determined from control cell patches with only vehicle added to the intracellular solution. Additionally, the effect of extracellular added compound was evaluated by determine V1/2 and steady state current amplitudes before and after exchanging the extracellular solution to contain compound.
The difference in half activation voltage of CIC-1 channels, […]V1/2, was determined as the difference between the cell patches treated intracellularly with compound and control cells patches and is reported in Table 4 below. A positive shift in […]V1/2 is reflecting CIC-1 channel inhibition by the tested compound. P-values of <0.05 is considered significant.

Compound	ΔV½ (difference in half activation voltage of ClC-1) [mV]
O=C(O)[C@H](CCF)Oc1ccc(Br)cc1 [Compound A-87, (2S)-2-(4-bromophenoxy)-4-fluorobutanoic acid]	16.4
O=C(O)[C@H](CCF)Oc1ccc(Br)cc1F [Compound A-85, (2S)-2-(4-bromo-2-fluorophenoxy)-4-fluorobutanoic acid]	12.5
O=C(O)[C@@H](Oc1ccc(Br)cc1F)C1CC1 [Compound A-89, (2S)-2-(4-bromo-2-fluorophenoxy)-2-cyclopropylacetic acid]	10.3
C[C@H](Oc1ccc(Br)cc1I)C(=O)O [Compound A-8, (2S)-2-(4-bromo-2-iodophenoxy)propanoic acid]	9.4
[2H]c1cc(Br)cc([2H])c1O[C@@H](C)C(=O)O [Compound A-6, (2S)-2-[4-bromo(2,6-^2H2)phenoxy]propanoic acid]	13.0
C[C@H](Oc1ccc(Cl)cc1F)C(=O)O [Compound A-38, (2S)-2-(4-chloro-2-fluorophenoxy)propanoic acid]	17.4
C#CC[C@H](Oc1ccc(Br)cc1Br)C(=O)O [Compound A-66, (2S)-2-(2,4-dibromophenoxy)pent-4-ynoic acid]	27.4
CC(C)[C@H](Oc1ccc(Br)cc1F)C(=O)O [Compound A-27, (2S)-2-(4-bromo-2-fluorophenoxy)-3-methylbutanoic acid]	20.2
C[C@@H](F)[C@H](Oc1ccc(Br)cc1F)C(=O)O [Compound A-95, (2R,3R)-2-(4-bromo-2-fluorophenoxy)-3-fluorobutanoic acid]	10.3
COC[C@H](Oc1ccc(Br)cc1Br)C(=O)O [Compound A-74, (2S)-2-(2,4-dibromophenoxy)-3-methoxypropanoic acid]	10.4
C#CC[C@H](Oc1ccc(Br)cc1Cl)C(=O)O [Compound A-67, (2S)-2-(4-bromo-2-chlorophenoxy)pent-4-ynoic acid]	37.8
C[C@H](Oc1ccc(Br)cc1Br)C(=O)O [Compound A-40, (2S)-2-(2,4-dibromophenoxy)propanoic acid]	5.19
CC[C@H](Oc1ccc(Br)cc1F)C(=O)O [Compound A-58, (2S)-2-(4-bromo-2-fluorophenoxy)butanoic acid]	28.2
O=C(O)[C@@H](Oc1ccc(Br)cc1F)C(F)F [Compound A-9, (2R)-2-(4-bromo-2-fluorophenoxy)-3,3-difluoropropanoic acid]	15.2
C#CC[C@H](Oc1ccc(Br)cc1F)C(=O)O [Compound A-69, (2S)-2-(4-bromo-2-fluorophenoxy)pent-4-ynoic acid]	32.6
[2H][C@@](CF)(Oc1ccc(Br)cc1)C(=O)O [Compound A-82, (2R)-2-(4-bromophenoxy)-3-fluoro(2-^2H)propanoic acid]	19.0
O=C(O)[C@H](CF)Oc1ccc(Br)cc1 [Compound A-26, (2R)-2-(4-bromophenoxy)-3-fluoropropanoic acid]	19.7
[2H]CC([2H])[C@H](Oc1ccc(Br)cc1)C(=O)O (stereo partly drawn) [Compound A-76, (2S)-2-(4-bromophenoxy)(3,4-^2H2)butanoic acid]	26.2

Each molecule was assayed on isolated rat soleus muscles (assay: Recovery of nerve-stimulated force in isolated rat soleus muscles exposed to sub-maximal tubocurarine). Conditions: not given.
Assay type: cell-based
Method: Experiments were performed using rat soleus muscles from either young (4-wk-old) or adult Wistar rats (12-14-week-old). Animal handling, killing and isolation of muscle is described elsewhere All experiments were performed using normal Krebs-Ringer bicarbonate solution (NKR). In solutions with elevated Mg^2+, MgCl2 was added to NKR-solution causing minor increases in osmolarity and ionic strength. In solutions with elevated K^+, 4 mM NaCl was replaced by 4 mM KCl in the NKR.
In all contraction experiments, isometric force production was determined and force produced during contractions was quantified by measuring the integral of the force response (AUC). Stimulation and force recordings have been described elsewhere. […] In these latter experiments, extracellular recordings of action potentials (M-waves) could be measured without temporal overlap with stimulation artefacts.
The aim was to find compounds that by inhibition of CIC-1 channels can recover nerve-stimulated force under conditions of fatigue including conditions where fatigue is caused by compromised neuromuscular transmission. Neuromuscular transmission dysfunction can develop because of both pre- and/or post-synaptic complications in connection with a disorder or as part of neuromuscular blockade during/after surgery. In the initial series of drug testing, experiments were performed with isolated muscles in the presence of sub-maximal ACh receptor antagonist tubocurarine. Since the inclusion of tubocurarine caused a partial loss of neuromuscular transmission this experiment mimics the conditions in myasthenia gravis and neuromuscular blockade. To mimic conditions with pre-synaptic complication (Lambert Eaton syndrome, motor neuron disorder, polyneuropathy) the intact nerve-muscle preparations were incubated at elevated extracellular Mg^2+, which is known to suppress release of ACh from nerve terminals of motor neurons.
The experiments also illustrate that field stimulation of the entire nerve-muscle preparation selectively activates the motor nerve when short-duration pulses (0.02 vs 0.2 ms) were used. In FIG. 1A the preparation was stimulated either via field stimulation or via nerve-stimulation using a suction electrode. With the suction electrode only the nerve could be stimulated. When exposed to a submaximal concentration of the ACh receptor antagonist tubocurarine (0.2 μM) a clear drop in peak force and a further decline (or fade) in force during the stimulation developed. This drop in force clearly reflected compromised neuromuscular transmission, as the decline in peak force and fading were not seen with direct stimulation of the muscle. […] Thus, loss of M-wave and force with tubocurarine reflected partial blockade of neuromuscular function. Such fading of force and M-waves during stimulation represent clinical hallmarks of both myasthenia gravis and neuromuscular blockade in connection with surgery. In FIG. 1B, observations with normal (0.2 ms) and short-duration (0.02 ms) pulses have been compared. It can be seen that only with short-duration pulses did tubocurarine cause a decline in peak force and fading (FIG. 1B). This confirms that short-duration pulses in field stimulation could be used as specific nerve-stimulation. […] Elevated extracellular Mg^2+ could thus be used to partially block neuromuscular transmission and thus be used as a model of conditions with compromised pre-synaptic function (Lambert Eaton syndrome, amyotrophic lateral sclerosis, spinal muscular atrophy). […]

Compound	50 μM % change after addition (AUC of nerve-stimulated force) [%]	150 μM % change after addition (AUC of nerve-stimulated force) [%]
CC(Oc1ccc(Cl)cc1)C(=O)Oc1ccc(Cl)cc1 (centres unmarked) [Compound C11, 4-chlorophenyl 2-(4-chlorophenoxy)propanoate]	46	54

The molecules below were run against T2, CIC-1 channels (Rattus norvegicus, UniProt P35524) (assay: Electrophysiological measurement of compound inhibition of CIC-1 in rat muscle (Gm, EC50)). Conditions: rat soleus muscle fibres, three micro-electrode Gm measurement; read-out: EC50 (inhibition of ClC-1 ion channel, Gm).
T2 construct: Gm was measured in individual fibres of whole rat soleus muscles; from tissue; host or cells: soleus muscle of adult (12-14 week old) Wistar rats
T2 sequence (P35524 1-994): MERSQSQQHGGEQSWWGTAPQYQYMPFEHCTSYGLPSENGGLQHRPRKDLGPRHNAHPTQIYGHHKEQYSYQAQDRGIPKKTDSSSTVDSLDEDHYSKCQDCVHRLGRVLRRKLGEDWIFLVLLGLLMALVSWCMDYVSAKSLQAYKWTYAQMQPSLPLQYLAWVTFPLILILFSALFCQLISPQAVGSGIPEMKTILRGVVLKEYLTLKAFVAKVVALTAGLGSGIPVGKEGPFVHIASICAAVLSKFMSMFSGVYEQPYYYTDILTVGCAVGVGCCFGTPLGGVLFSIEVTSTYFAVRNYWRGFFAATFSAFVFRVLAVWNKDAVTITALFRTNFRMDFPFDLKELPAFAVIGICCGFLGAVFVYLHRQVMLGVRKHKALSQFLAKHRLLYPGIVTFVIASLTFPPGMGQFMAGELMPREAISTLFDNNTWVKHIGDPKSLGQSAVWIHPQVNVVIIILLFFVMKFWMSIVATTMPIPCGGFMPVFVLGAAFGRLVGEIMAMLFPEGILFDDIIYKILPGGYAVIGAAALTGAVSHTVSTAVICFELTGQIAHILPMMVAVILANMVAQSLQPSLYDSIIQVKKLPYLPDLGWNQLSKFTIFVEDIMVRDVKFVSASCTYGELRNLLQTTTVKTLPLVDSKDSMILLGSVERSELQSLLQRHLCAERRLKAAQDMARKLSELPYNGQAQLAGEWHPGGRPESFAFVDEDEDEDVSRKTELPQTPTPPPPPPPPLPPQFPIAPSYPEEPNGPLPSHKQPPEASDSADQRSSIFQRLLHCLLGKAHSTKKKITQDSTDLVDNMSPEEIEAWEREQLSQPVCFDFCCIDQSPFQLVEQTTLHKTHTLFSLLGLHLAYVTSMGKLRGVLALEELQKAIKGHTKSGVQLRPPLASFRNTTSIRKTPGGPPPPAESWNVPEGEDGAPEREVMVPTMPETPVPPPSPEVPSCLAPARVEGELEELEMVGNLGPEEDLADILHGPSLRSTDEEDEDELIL
Assay type: cell-based

Compound	EC50 [µM]
[2H][C@@](CF)(Oc1ccc(Br)cc1)C(=O)O [Compound A-82, (2R)-2-(4-bromophenoxy)-3-fluoro(2-^2H)propanoic acid]	5.2 ± 1.3
[2H]CC([2H])[C@H](Oc1ccc(Br)cc1)C(=O)O (stereo partly drawn) [Compound A-76, (2S)-2-(4-bromophenoxy)(3,4-^2H2)butanoic acid]	3.8 ± 2.1

Same assay, conditions: rat soleus muscle fibres; sigmoidal fit of average Gm; read-out: EC50 (inhibition of CIC-1, reduction of Gm)

Compound	EC50 [µM]
CC(C)[C@@H](Oc1ccc(Br)cc1F)C(=O)O [Compound A-4, (2R)-2-(4-bromo-2-fluoraphenoxy)-3-methylbutanoic acid]	> 80
